Data reported in patent US7008911B2, “Non-surfactant solubilizing agent” (Ecolab, Inc., priority 2002, dated 2006).

Experiments:
Assay type in all cases: physicochemical
[1] = Alcohol amine added to aqueous PPh solution until single phase observed; conditions: aqueous PPh (34-37 wt % PPh, 39-42 wt % water), room temperature, Formulations B-E
[2] = Alcohol amine added to aqueous EPh solution until single phase observed; conditions: for amount added until a single phase solution was observed: 100 grams total, room temperature
[3] = Alcohol amine added to aqueous benzyl alcohol solution until single phase observed; conditions: aqueous benzyl alcohol (37 wt %, water 42 wt %), room temperature, Formulation F
[4] = listed as of Table 4 with 1 % Eph in H2O, Eph 1 wt % normalized
[5] = listed as of Table 4 with 2.5 % Eph in H2O, Eph 2 wt % normalized
[6] = listed as of Table 4 with 5 % Eph in H2O, Eph 4 wt % normalized
[7] = listed as of Table 4 with 10 % Eph in H2O, Eph 7-8 wt % normalized
[8] = listed as of Table 4 with 15 % Eph in H2O, Eph 10-12 wt % normalized
[9] = listed as of Table 4 with 20 % Eph in H2O, Eph 14-15 wt % normalized
[10] = listed as of Table 4 with 30 % Eph in H2O, Eph 21-23 wt % normalized
[11] = listed as of Table 4 with 50 % Eph in H2O, Eph 36-40 wt % normalized
[12] = listed as of Table 4 with 75 % Eph in H2O, Eph 58-64 wt % normalized

alcohol amine at single phase, normalized on total weight % [1]	amount added until a single phase solution was observed ([2]; 1 % Eph in H2O)	amount added until a single phase solution was observed ([2]; 2.5 % Eph in H2O)	amount added until a single phase solution was observed ([2]; 5 % Eph in H2O)	amount added until a single phase solution was observed ([2]; 10 % Eph in H2O)	amount added until a single phase solution was observed ([2]; 15 % Eph in H2O)	amount added until a single phase solution was observed ([2]; 20 % Eph in H2O)	amount added until a single phase solution was observed ([2]; 30 % Eph in H2O)	amount added until a single phase solution was observed ([2]; 50 % Eph in H2O)	amount added until a single phase solution was observed ([2]; 75 % Eph in H2O)	alcohol amine at single phase, normalized to 100 weight % of water, alcohol amine and EPh [2, 4]	alcohol amine at single phase, normalized to 100 weight % of water, alcohol amine and EPh [2, 5]	alcohol amine at single phase, normalized to 100 weight % of water, alcohol amine and EPh [2, 6]	alcohol amine at single phase, normalized to 100 weight % of water, alcohol amine and EPh [2, 7]	alcohol amine at single phase, normalized to 100 weight % of water, alcohol amine and EPh [2, 8]	alcohol amine at single phase, normalized to 100 weight % of water, alcohol amine and EPh [2, 9]	alcohol amine at single phase, normalized to 100 weight % of water, alcohol amine and EPh [2, 10]	alcohol amine at single phase, normalized to 100 weight % of water, alcohol amine and EPh [2, 11]	alcohol amine at single phase, normalized to 100 weight % of water, alcohol amine and EPh [2, 12]	alcohol amine at single phase, normalized on total weight % [3]	SMILES
25 wt %	2.3 Grams	12.7 Grams	26.9 Grams	40.5 Grams	45.4 Grams	44 Grams	40 Grams	34 Grams	26.1 Grams	2 wt %	11 wt %	21 wt %	29 wt %	32 wt %	30 wt %	29 wt %	26 wt %	20 wt %		NCCO [MEA, monoethanolamine]
21 wt %	3.5 Grams	16 Grams	26.8 Grams	32.2 Grams	33.5 Grams	32.9 Grams	31.1 Grams	26 Grams	17.5 Grams	3 wt %	14 wt %	21 wt %	24 wt %	25 wt %	25 wt %	24 wt %	20 wt %	15 wt %	21 wt %	CC(O)CN (stereo not shown) [MIPA, monoisopropanolamine]
21 wt %	4.8 Grams	12.3 Grams	21.5 Grams	26.8 Grams	28.7 Grams	29.2 Grams	29 Grams	26.7 Grams	17.8 Grams	5 wt %	11 wt %	18 wt %	21 wt %	22 wt %	23 wt %	23 wt %	22 wt %	15 wt %		CC(C)(N)CO [AMP, 2-amino-2-methyl-1-propanol]
